Data as given in ChEMBL document CHEMBL1152335, “NMR strategy for unraveling structures of bioactive sponge-derived oxy-polyhalogenated diphenyl ethers” (J Nat Prod, 2009).

Each compound was assayed against Induced myeloid leukemia cell differentiation protein Mcl-1 (Homo sapiens, UniProt Q07820) (assay: Inhibition of Bak binding to Mcl-1 by FRET assay).
Sequence of Induced myeloid leukemia cell differentiation protein Mcl-1 (Q07820 whole entry): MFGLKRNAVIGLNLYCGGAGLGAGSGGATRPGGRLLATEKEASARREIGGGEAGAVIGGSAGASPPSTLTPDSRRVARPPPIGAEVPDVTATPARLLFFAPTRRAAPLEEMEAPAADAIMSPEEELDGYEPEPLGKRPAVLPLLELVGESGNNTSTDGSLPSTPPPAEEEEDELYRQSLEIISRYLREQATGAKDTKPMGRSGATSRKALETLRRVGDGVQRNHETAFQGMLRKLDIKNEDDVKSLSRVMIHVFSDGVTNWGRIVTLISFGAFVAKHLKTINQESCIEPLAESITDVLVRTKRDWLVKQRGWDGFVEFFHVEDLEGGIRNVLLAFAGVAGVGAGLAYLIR

`Oc1c(Br)cc(Br)cc1Oc1c(O)c(Br)c(Br)c(Br)c1Br` and `Oc1cc(Br)c(Br)c(Br)c1Oc1cc(Br)cc(Br)c1O` cannot be ordered by IC50: greater than 14.8 µM for the first, greater than 16.8 µM for the second.

First: Oc1cc(Br)cc(Br)c1Oc1ccc(Br)cc1Br
Second: Oc1c(Br)c(Br)cc(Br)c1Oc1ccc(Br)cc1Br
The IC50 of the first is lower: 4.78 µM for the first, greater than 17.2 µM for the second.

`Oc1c(Br)cc(Br)cc1Oc1c(Br)cc(Br)c(Br)c1O` and `Oc1c(Br)cc(Br)cc1Oc1c(O)c(Br)cc(Br)c1Br` cannot be ordered by IC50: greater than 16.8 µM for the first, greater than 16.8 µM for the second.

`Oc1c(Br)cc(Br)cc1Oc1cc(Br)c(Br)c(Br)c1O` and `COc1c(Br)c(Br)cc(Br)c1Oc1cc(Br)cc(Br)c1O` cannot be ordered by IC50: greater than 16.8 µM for the first, greater than 16.4 µM for the second.
